{"source": "patent US10201584B1", "about": "“Compositions and methods for treating HCV” (AbbVie Inc., priority 2011, dated 2019)", "origin": "cited, not measured here", "tested_on": "HCV", "settings": "hepatitis C patients; background statement"}
{"smiles": "NC(=O)c1ncn([C@@H]2O[C@H](CO)[C@@H](O)[C@H]2O)n1", "note": "[ribavirin]", "values": [{"measurement": "suppression of HCV levels / effectiveness of regimen", "result": "does not effectively suppress HCV levels"}]}
